# Experiments:
# Type in all cases: cell-based, E. coli
# CC104 mutY::cam = test: Survival curves after cisplatin treatment; settings: presence or absence of chloramphenicol in growth medium
# Protocol: (§1) MacConkey agar and LB broth were purchased from Difco. LB broth contained 10 g tryptone, 5 g yeast extract, and 10 g NaCl per 1 L. All antibiotics and cisplatin (cis-diammine-dichloro-platinum(II), or CDDP) were purchased from Sigma-Aldrich. Antibiotics were used at the following final concentrations: 15 μg/ml tetracycline (Tc), 100 μg/ml ampicillin, 50 μg/ml kanamycin, 100 μg/ml streptomycin, 30 μg/ml nalidixic acid and 20 μg/ml chloramphenicol. Cisplatin solutions were prepared by dissolution in phosphate buffered saline (PBS) at 37° C. for one hour with rotation, filtering the solution through a 0.2 μm Acrodisc filter, and determining the concentration by UV absorbance at A301 using a Beckmann DU-65 spectrophotometer. Appropriate doses of cisplatin were then prepared by dilution in PBS.
# (§2) Cells were grown overnight from single colonies in LB broth. The next morning, saturated overnight cultures were diluted 1:100 and grown for two hours to mid-log phase (cell density approximately 3×10^8 cells/ml). At this time, the cells were spun down, resuspended in M9 minimal salts, and treated with various concentrations of cisplatin at 37° C. for 1 hour. Exposure to cisplatin was stopped by dilution of the cells 1:100 in M9 salts. Appropriate serial dilutions were prepared for each dose and plated on LB plates or LB/Tet plates. Colonies were counted the next day after incubation at 37° C. Survival was calculated as a percentage of cells forming colonies in treated populations relative to untreated.
# MG1655/pBR322 = test: Survival curves after cisplatin treatment
# Protocol: (§3) Strains carrying the pBR322 plasmid were created using a standard transformation by electroporation protocol. Briefly, cells were grown to mid-log phase, spun down, and washed 3 times in ice-cold sterile water. Cells were then resuspended in the final volume of 100 μl of ice-cold sterile water, and 10 μg pBR322 (New England BioLabs) was added. The BTX electroporation system, ElectroCell Manipulator 600, was used to deliver the pulse. After the pulse, cells were immediately resuspended in 1 ml of LB broth. Appropriate dilutions of cells were prepared in M9 minimal salts, plated on LB-ampicillin plates, and allowed to form colonies overnight.
# as §1, §2
# CC104/pBR322 = test: Survival curves after cisplatin treatment; settings: grown with tetracycline prior to cisplatin treatment
# Protocol: as §3, §1, §2
# AB1157/pBR322 = test: Survival curves after cisplatin treatment; settings: grown with tetracycline prior to cisplatin treatment
# Protocol: as §3, §1, §2
# CC104 mutY::tet = test: Survival curves after cisplatin treatment
# Protocol: as §1, §2
# AB1157 mutS::tet = test: Survival curves after cisplatin treatment
# Protocol: as §1, §2
# GM7330 fpg::tet = test: Survival curves after cisplatin treatment
# Protocol: as §1, §2
# MG1655/F′Tn10 = test: Survival curves (colony formation) after cisplatin treatment
# Protocol: Strain GM4292 was constructed by mating exponentially growing XL1-Blue (Stratagene) with MG1655 (both at 1-2×10^8/ml at a 1:1 ratio) for 60 min and plating dilutions of the mixture on MacConkey agar-tetracycline plates. A red tetracycline-resistant, nalidixic acid-sensitive colony was selected, purified and designated GM4292. Strain GM4293 was constructed by introducing F′42 (F′lac^+) from AB 1874 into KM81 by conjugation as described above and selecting for Lac^+ Str^R colonies. A purified Lac^+ Str^R recombinant overnight culture was diluted and plated on MacConkey agar-kanamycin and following incubation overnight at 37° C., white colonies were selected. White colonies can arise either by gene conversion, where the lac^+ allele on the F′42 plasmid is converted to lacZ::Kan, or by loss of the F′lac^+. The white colonies were tested for their ability to transfer kanamycin-resistance at high frequency to MG1655, indicating retention of the F′ plasmid. One of these MG1655 recipients was designated GM4293.
# as §1
# Cells were grown overnight from single colonies in LB broth. The next morning, saturated overnight cultures were diluted 1:100 and grown for two hours to mid-log phase (cell density approximately 3×10^8 cells/ml). […] Exposure to cisplatin was stopped by dilution of the cells 1:100 in M9 salts. Appropriate serial dilutions were prepared for each dose and plated on LB plates or LB/Tet plates. Colonies were counted the next day after incubation at 37° C. Survival was calculated as a percentage of cells forming colonies in treated populations relative to untreated.
# GM7330 fpg::amp = test: Survival curves after cisplatin treatment; settings: presence or absence of ampicillin in growth medium
# Protocol: as §1, §2
# [1] = grown without tetracycline, treated with cisplatin alone
# [2] = grown without tetracycline, treated with cisplatin in the presence of tetracycline
# [3] = pre-treated and co-treated with tetracycline vs pre-treated only, cisplatin
# [4] = tetracycline absent from growth medium
compound,measurement,setting,value
O=C(N[C@H](CO)[C@H](O)c1ccc([N+](=O)[O-])cc1)C(Cl)Cl [chloramphenicol],effect of antibiotic in growth medium on survival upon cisplatin treatment,CC104 mutY::cam,did not produce the same degree of sensitization to cisplatin
"N.N.[Cl][Pt][Cl] [cisplatin, cis-diammine-dichloro-platinum(II)]",sensitization to cisplatin,MG1655/pBR322; grown with tetracycline prior to cisplatin treatment,did not produce similar sensitization to cisplatin
same,sensitivity to cisplatin,MG1655/pBR322; [1],equally sensitive to cisplatin as MG1655 cells not carrying any tet genes
same,survival,MG1655/pBR322; [2],their survival decreased
same,additional decrease in survival,MG1655/pBR322; [3],100 fold
same,sensitization to cisplatin,CC104/pBR322,did not produce similar sensitization to cisplatin
same,sensitization to cisplatin,AB1157/pBR322,did not produce similar sensitization to cisplatin
same,survival upon treatment with cisplatin,CC104 mutY::tet; grown with tetracycline,dramatically decreased
same,survival upon treatment with cisplatin,CC104 mutY::tet; [4],not different from respective wild-types
same,survival upon treatment with cisplatin,AB1157 mutS::tet; grown with tetracycline,dramatically decreased
same,survival upon treatment with cisplatin,AB1157 mutS::tet; [4],not different from respective wild-types
same,survival upon treatment with cisplatin,GM7330 fpg::tet; grown with tetracycline,dramatically decreased
same,survival upon treatment with cisplatin,GM7330 fpg::tet; [4],not different from respective wild-types
same,sensitivity to cisplatin,"MG1655/F′Tn10; 4 hours, 10-fold lower cisplatin doses, co-treated with tetracycline only",more sensitive to cisplatin than wild-type
same,survival,"MG1655/F′Tn10; 4 hours, 10-fold lower cisplatin doses, neither pre-treated nor co-treated with tetracycline",not different from survival of wild-type cells
same,sensitivity to cisplatin,"MG1655/F′Tn10; 4 hours, 10-fold lower cisplatin doses, pre-treated with tetracycline and co-treated with cisplatin and tetracycline",the most sensitive to cisplatin treatment
same,sensitivity to cisplatin,"MG1655/F′Tn10; 4 hours, 10-fold lower cisplatin doses, pre-treated with tetracycline only",more sensitive to cisplatin than wild-type
same,sensitivity to cisplatin,MG1655/F′Tn10; [1],equally sensitive to cisplatin as MG1655 cells not carrying any tet genes
same,survival,MG1655/F′Tn10; [2],their survival decreased
same,survival upon exposure to cisplatin,"MG1655/F′Tn10; grown without tetracycline, cisplatin 1 hour",not different from that of MG1655 wild-type cells
same,additional decrease in survival,MG1655/F′Tn10; [3],100 fold
same,survival upon subsequent treatment with cisplatin,"MG1655/F′Tn10; tetracycline 15 μg/ml in growth medium of overnight and log phase cultures, cisplatin 1 hour",dramatic decrease in survival
same,killed more effectively than wild-type bacteria,"MG1655/F′Tn10; tetracycline-resistant bacteria grown in tetracycline, then cisplatin in the presence of tetracycline, vs wild-type or resistant bacteria not exposed to tetracycline",about 10^5 fold
CC1(C)S[C@@H]2[C@H](NC(=O)[C@H](N)c3ccccc3)C(=O)N2[C@H]1C(=O)O [ampicillin],effect of antibiotic in growth medium on survival upon cisplatin treatment,GM7330 fpg::amp,did not produce the same degree of sensitization to cisplatin

# Source: patent publication US7943600B2, “Antimicrobial combination therapy” (priority 2004, dated 2011)
